# Measurements reported in ChEMBL document CHEMBL3596124, “New anti-trypanosomal active tetracyclic iridoid isolated from Morinda lucida Benth” (Bioorg Med Chem Lett, 2015).
# What was measured:
# [1] = system: Trypanosoma brucei brucei; assay: Anti-trypanosomal activity against Trypanosoma brucei brucei GUTat 3.1 bloodstream forms assessed as reduction in parasitemia incubated for 48 hrs by alamar blue assay; assay type: functional, organism-based; conditions: GUTat 3.1, 48 h
# [2] = Cytotoxicity against human NB1RGB cells assessed as reduction in cell viability incubated for 48 hrs by MTT assay; assay type: cell-based
# [3] = Cytotoxicity against human HF19 cells assessed as reduction in cell viability incubated for 48 hrs by MTT assay; assay type: cell-based; conditions: HF19, 48 h
# Caco-2 = assay: Cytotoxicity against human Caco2 cells assessed as reduction in cell viability incubated for 48 hrs by MTT assay; assay type: functional, cell-based; conditions: Caco-2, 48 h
# LoVo = assay: Cytotoxicity against human LoVo cells assessed as reduction in cell viability incubated for 48 hrs by MTT assay; assay type: functional, cell-based
# HCT-15 = assay: Cytotoxicity against human HCT15 cells assessed as reduction in cell viability incubated for 48 hrs by MTT assay; assay type: functional, cell-based; conditions: HCT-15, 48 h
# [4] = Cytotoxicity against human KATO III cells assessed as reduction in cell viability incubated for 48 hrs by MTT assay; assay type: functional, cell-based
# Jurkat = assay: Cytotoxicity against human Jurkat cells assessed as reduction in cell viability incubated for 48 hrs by MTT assay; assay type: functional, cell-based
# U-937 = assay: Cytotoxicity against human U937 cells assessed as reduction in cell viability incubated for 48 hrs by MTT assay; assay type: functional, cell-based; conditions: U-937, 48 h
# HL-60 = assay: Cytotoxicity against human HL60 cells assessed as reduction in cell viability incubated for 48 hrs by MTT assay; assay type: functional, cell-based; conditions: HL-60, 48 h
# THP-1 = assay: Cytotoxicity against human THP1 cells assessed as reduction in cell viability incubated for 48 hrs by MTT assay; assay type: functional, cell-based; conditions: THP-1, 48 h
# [5] = Selectivity index, ratio of IC50 for human NB1RGB cells to IC50 for Trypanosoma brucei brucei GUTat 3.1 bloodstream forms; assay type: toxicity, cell-based; conditions: read-out: Ratio IC50
# [6] = Selectivity index, ratio of IC50 for human HF19 cells to IC50 for Trypanosoma brucei brucei GUTat 3.1 bloodstream forms; assay type: toxicity, cell-based; conditions: read-out: Ratio IC50
# [7] = Selectivity index, ratio of IC50 for human Caco2 cells to IC50 for Trypanosoma brucei brucei GUTat 3.1 bloodstream forms; assay type: functional, Caco-2
# [8] = Selectivity index, ratio of IC50 for human LoVo cells to IC50 for Trypanosoma brucei brucei GUTat 3.1 bloodstream forms; assay type: functional
# [9] = Selectivity index, ratio of IC50 for human HCT15 cells to IC50 for Trypanosoma brucei brucei GUTat 3.1 bloodstream forms; assay type: functional, HCT-15
# [10] = Selectivity index, ratio of IC50 for human KATO III cells to IC50 for Trypanosoma brucei brucei GUTat 3.1 bloodstream forms; assay type: functional, KATO III cell
# [11] = Selectivity index, ratio of IC50 for human Jurkat cells to IC50 for Trypanosoma brucei brucei GUTat 3.1 bloodstream forms; assay type: functional
# [12] = Selectivity index, ratio of IC50 for human U937 cells to IC50 for Trypanosoma brucei brucei GUTat 3.1 bloodstream forms; assay type: functional, U-937
# [13] = Selectivity index, ratio of IC50 for human HL60 cells to IC50 for Trypanosoma brucei brucei GUTat 3.1 bloodstream forms; assay type: functional, HL-60
# [14] = Selectivity index, ratio of IC50 for human THP1 cells to IC50 for Trypanosoma brucei brucei GUTat 3.1 bloodstream forms; assay type: functional, THP-1
smiles,measurement,setting,value
COC(=O)C1=CO[C@@H]2O[C@H]3/C(=C\c4ccc(O)c(OC)c4)C(=O)O[C@]34C=C[C@H]1[C@H]24,IC50,[1],1.27 µM
same,IC50,[2],6.01 µM
same,IC50,[3],12.1 µM
same,IC50,Caco-2,1.35 µM
same,IC50,LoVo,0.11 µM
same,IC50,HCT-15,16 µM
same,IC50,[4],0.21 µM
same,IC50,Jurkat,2.45 µM
same,IC50,U-937,4.08 µM
same,IC50,HL-60,3.87 µM
same,IC50,THP-1,6.98 µM
same,selectivity ratio,[5],4.73
same,selectivity ratio,[6],9.54
same,Ratio IC50,[7],1.06
same,Ratio IC50,[8],0.09
same,Ratio IC50,[9],12.63
same,Ratio IC50,[10],0.17
same,Ratio IC50,[11],1.93
same,Ratio IC50,[12],3.21
same,Ratio IC50,[13],3.05
same,Ratio IC50,[14],5.5
